In article PMC7281265, “Design, Synthesis, and Biological Evaluation of 1,2,3-Triazole-linked triazino[5,6-b]indole-benzene sulfonamide Conjugates as Potent Carbonic Anhydrase I, II, IX, and XIII Inhibitors” (Metabolites, 2020) one finds melting point and Ki data, which are given here for 15 compounds.

Series [1] concerns the target hCA I (Homo sapiens, UniProt P00915). As to the kind of experiment: stopped-flow CO2 hydrase assay, hCA I.
Description: (§1) The newly synthesized 1,2,3-triazole linked triazino[5,6-b]indole-benzene sulfonamide hybrids (6a–6o) were evaluated for their carbonic anhydrase inhibitory activity against a panel of carbonic anhydrases, i.e., hCA I, hCA II, hCA IX, and hCA XIII, by the stopped-flow CO2 hydrase assay method. Highly purified CA isoforms were employed, for which the kinetic parameters for the physiologic reaction (CO2 hydration) were measured (see the Experimental section for details), monitoring the color change produced by the formation of H^+ ions (and bicarbonate). […] All the newly synthesized analogs were evaluated in vitro for their inhibitory activity against a panel of recombinant CA isoforms, i.e., hCA I, hCA II, hCA IX, and hCA XIII, obtained inhouse, using the stopped-flow CO2 hydrase assay.
(§2) An SX.18 V-R Applied Photophysics (Oxford, UK) stopped-flow instrument was used to assay the catalytic inhibition of various CA enzymes [32]. […] IC50-s values were calculated from the enzyme activity (as kcat, see Table 2) with respect to the inhibitor concentration.
Series [2] deals with hCA II (Homo sapiens, UniProt P00918). Put plainly: stopped-flow CO2 hydrase assay, hCA II.
Description: as §1, §2
The target of series [3] is hCA IX (Homo sapiens, UniProt Q16790). Put plainly: stopped-flow CO2 hydrase assay, hCA IX.
Description: as §1, §2
Series [4] concerns the target hCA XIII (Homo sapiens, UniProt Q8N1Q1). As to the kind of experiment: stopped-flow CO2 hydrase assay, hCA XIII.
Description: as §1, §2

hCA XIII, sequence (Q8N1Q1 whole entry): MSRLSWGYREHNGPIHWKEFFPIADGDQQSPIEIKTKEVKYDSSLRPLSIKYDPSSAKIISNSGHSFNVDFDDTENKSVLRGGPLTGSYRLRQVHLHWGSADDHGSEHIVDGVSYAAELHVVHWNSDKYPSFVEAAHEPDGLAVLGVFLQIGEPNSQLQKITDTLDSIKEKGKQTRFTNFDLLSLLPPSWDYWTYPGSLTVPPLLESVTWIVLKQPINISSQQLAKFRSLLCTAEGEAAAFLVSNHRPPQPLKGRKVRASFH
hCA I, sequence (P00915 whole entry): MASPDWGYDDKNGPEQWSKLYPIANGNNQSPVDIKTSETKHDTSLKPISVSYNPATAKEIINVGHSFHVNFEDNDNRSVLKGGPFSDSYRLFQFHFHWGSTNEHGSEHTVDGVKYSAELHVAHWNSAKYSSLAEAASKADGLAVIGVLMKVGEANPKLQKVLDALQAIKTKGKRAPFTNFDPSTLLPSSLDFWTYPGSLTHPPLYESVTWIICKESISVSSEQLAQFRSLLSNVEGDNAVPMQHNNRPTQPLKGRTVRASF

As a reminder, the melting point is the temperature, or range, at which the solid turns liquid. A word on the Ki: it is the equilibrium dissociation constant of an inhibitor or competing ligand from its target. High values mean a looser hold on the target, low ones a stronger hold on the target. `CC(C)n1c2ccccc2c2nnc(SCc3cn(-c4ccc(S(N)(=O)=O)cc4)nn3)nc21` [Compound 6d] returned a melting point of 213 to 215 °C. The affinity in series [1] corresponds to a Ki of 0.315 µM. Also, the inhibitory constant (Ki) in series [2] turned out to be 0.0209 µM. In series [3], this compound yielded a Ki of 0.0378 µM. For the same compound, the inhibition constant Ki in series [4] amounted to 0.0658 µM.
On the same counts, the results for `CCCn1c2ccccc2c2nnc(SCc3cn(-c4ccc(S(N)(=O)=O)cc4)nn3)nc21` [Compound 6c] are 261 to 263 °C, 3.96 µM, 0.0887 µM, 0.219 µM and 0.365 µM.
The like results for `C=CCn1c2ccccc2c2nnc(SCc3cn(-c4ccc(S(N)(=O)=O)cc4)nn3)nc21` [Compound 6e] were, in that order, 230 to 232 °C, 0.536 µM, 0.0417 µM, 0.0411 µM and 0.627 µM.
On the same counts, the results for `CC(C)n1c2ccc(Cl)cc2c2nnc(SCc3cn(-c4ccc(S(N)(=O)=O)cc4)nn3)nc21` [Compound 6n] are 263 to 265 °C, 0.572 µM, 0.179 µM, 0.321 µM and 0.0913 µM.
`CC(C)n1c2ccc(F)cc2c2nnc(SCc3cn(-c4ccc(S(N)(=O)=O)cc4)nn3)nc21` [Compound 6i] displayed a melting point of 235 to 237 °C. Further, in series [1], the Ki was determined as 0.379 µM. In series [2], this compound returned a Ki of 0.0077 µM. In series [3], this compound yielded a Ki of 0.0349 µM. In addition, in series [4], the affinity corresponds to a Ki of 0.736 µM.
On the same counts, the results for `CCCn1c2ccc(Cl)cc2c2nnc(SCc3cn(-c4ccc(S(N)(=O)=O)cc4)nn3)nc21` [Compound 6m] are 257 to 262 °C, 6.51 µM, 0.0617 µM, 0.205 µM and 0.824 µM.
The like results for `Cn1c2ccccc2c2nnc(SCc3cn(-c4ccc(S(N)(=O)=O)cc4)nn3)nc21` [Compound 6a] were, in that order, 235 to 240 °C, 0.91 µM, 0.0655 µM, 0.286 µM and 0.0778 µM.
The like results for `Cn1c2ccc(F)cc2c2nnc(SCc3cn(-c4ccc(S(N)(=O)=O)cc4)nn3)nc21` [Compound 6f] were, in that order, 244 to 246 °C, 0.766 µM, 0.0596 µM, 0.0413 µM and 0.835 µM.
Turning to `CCn1c2ccc(F)cc2c2nnc(SCc3cn(-c4ccc(S(N)(=O)=O)cc4)nn3)nc21` [Compound 6g], the melting point fell in the range of 246 to 248 °C. This compound displayed a Ki in series [1] of 0.699 µM. Also, in series [2], the Ki is 0.0639 µM. Also, the affinity in series [3] corresponds to a Ki of 0.193 µM. This compound also had a Ki in series [4] of 0.675 µM.
The like results for `CCn1c2ccc(Cl)cc2c2nnc(SCc3cn(-c4ccc(S(N)(=O)=O)cc4)nn3)nc21` [Compound 6l] were, in that order, 252 to 256 °C, 2.84 µM, 0.185 µM, 0.15 µM and 3.98 µM.
The like results for `Cn1c2ccc(Cl)cc2c2nnc(SCc3cn(-c4ccc(S(N)(=O)=O)cc4)nn3)nc21` [Compound 6k] were, in that order, 243 to 248 °C, 5.14 µM, 0.253 µM, 0.331 µM and 0.867 µM.
`C=CCn1c2ccc(Cl)cc2c2nnc(SCc3cn(-c4ccc(S(N)(=O)=O)cc4)nn3)nc21` [Compound 6o] returned a melting point of 261 to 264 °C. In series [1], this compound showed a Ki of 0.694 µM. The Ki in series [2] was found to be 0.0971 µM. In addition, the affinity in series [3] corresponds to a Ki of 0.325 µM. In series [4], this compound gave a Ki of 2.3 µM.
In turn, `CCCn1c2ccc(F)cc2c2nnc(SCc3cn(-c4ccc(S(N)(=O)=O)cc4)nn3)nc21` [Compound 6h] returned a melting point of 240 to 242 °C. In series [1], this compound gave a Ki of 0.764 µM. In addition, the Ki in series [2] worked out at 0.683 µM. In addition, affinity in series [3] was put at a Ki of 0.119 µM. Further, the affinity in series [4], expressed as Ki, was 1.81 µM.
As to `CCn1c2ccccc2c2nnc(SCc3cn(-c4ccc(S(N)(=O)=O)cc4)nn3)nc21` [Compound 6b], the melting point was 202 to 204 °C. In series [1], the Ki amounted to 0.642 µM. In series [2], the Ki is 0.072 µM. Also, the Ki in series [3] was determined as 0.172 µM. The Ki in series [4] came out at 0.0698 µM.
The like results for `C=CCn1c2ccc(F)cc2c2nnc(SCc3cn(-c4ccc(S(N)(=O)=O)cc4)nn3)nc21` [Compound 6j] were, in that order, 245 to 247 °C, 4.59 µM, 0.0737 µM, 0.402 µM and 0.794 µM.
